Test results taken from US9481676B2, “Azepino[4,5-B]indoles and methods of use” (Medivation Technologies, Inc., priority 2008, dated 2016).

Experiments:
[1] = molecular target: T1, human recombinant serotonin (5-Hydroxytryptamine) 5-HT2C receptor (Homo sapiens, UniProt P28335); assay: Serotonin 5-HT2C radioligand binding ([3H]Mesulergine); details: compound at 1 μM; read-out: Serotonin (1 μM) 5-HT2C, percent inhibition of specific binding
T1 construct: expressed in transfected cells; host or cells: CHO-K1 cells
T1 sequence (P28335 33-458): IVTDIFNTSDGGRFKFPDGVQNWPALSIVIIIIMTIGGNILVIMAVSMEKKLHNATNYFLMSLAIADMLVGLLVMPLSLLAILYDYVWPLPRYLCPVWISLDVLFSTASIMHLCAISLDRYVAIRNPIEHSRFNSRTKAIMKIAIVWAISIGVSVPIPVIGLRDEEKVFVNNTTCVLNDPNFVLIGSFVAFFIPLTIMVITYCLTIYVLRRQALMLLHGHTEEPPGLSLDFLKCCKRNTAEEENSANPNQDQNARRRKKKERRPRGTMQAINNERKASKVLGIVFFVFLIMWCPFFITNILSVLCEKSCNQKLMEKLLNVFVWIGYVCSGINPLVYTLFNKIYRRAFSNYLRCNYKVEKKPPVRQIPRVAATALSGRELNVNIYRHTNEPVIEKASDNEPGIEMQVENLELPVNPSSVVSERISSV
Experimental: To evaluate in radioligand binding assays the activity of compounds of the invention, human recombinant serotonin (5-Hydroxytryptamine) 5-HT2C receptor expressed in Chinese hamster ovary (CHO-K1) cells (Wolf, W. A. and Schutz, J. S., J. Neurochem. 69:1449, 1997) in a modified Tris-HCl buffer (50 mM Tris-HCl, pH 7.4, 0.1% Ascorbic Acid, 10 μM Pargyline) was used. Compounds of the invention were incubated with 1 nM [^3H]Mesulergine for 60 min. at 25° C. Non-specific binding was estimated in the presence of 1 μM Mianserin. Receptor proteins were filtered and washed, the filters were then counted to determine [^3H]Mesulergine specifically bound. Compounds were screened at 1 μM or lower, using 1% DMSO as vehicle. Biochemical assay results are presented as the percent inhibition of specific binding in Table 6.

[2] = molecular target: T2, human recombinant histamine H1 receptor (Homo sapiens, UniProt P35367); assay: Histamine H1 radioligand binding ([3H]Pyrilamine); details: compound at 1 μM; read-out: Histamine Binding (1 μM) H1, percent inhibition of specific binding
T2 construct: expressed in transfected cells; host or cells: CHO cells
Experimental: To evaluate in radioligand binding assays the activity of compounds of the invention, human recombinant histamine H1 receptor expressed in Chinese hamster ovary (CHO) cells (De Backer, M. D. et al., Biochem. Biophys. Res. Comm. 197(3):1601, 1993) in a modified Tris-HCl buffer (50 mM Tris-HCl, pH 7.4, 2 mM MgCl2, 100 mM NaCl, 250 mM Sucrose) was used. Compounds of the invention were incubated with 1.2 nM [^3H]Pyrilamine for 180 min. at 25° C. Non-specific binding was estimated in the presence of 1 μM pyrilamine. Receptor proteins were filtered and washed, the filters were then counted to determine [^3H]Pyrilamine specifically bound. Compounds were screened at 1 μM or lower, using 1% DMSO as vehicle. Biochemical assay results are presented as the percent inhibition of specific binding in Table 6.

[3] = molecular target: T3, human recombinant dopamine D2L receptor (Homo sapiens, UniProt P14416); assay: Dopamine D2L radioligand binding ([3H]Spiperone); details: compound at 1 μM; read-out: Dopamine (1 μM) D2L, percent inhibition of specific binding
T3 construct: expressed in transfected cells; host or cells: CHO cells
Experimental: To evaluate in radioligand binding assays the activity of compounds of the invention, human recombinant dopamine D2L receptor expressed in Chinese hamster ovary (CHO) cells (Grandy, D. K. et al. Proc. Natl. Acad. Sci. USA. 86:9762, 1989; Hayes, G. et al., Mol. Endocrinol. 6:920, 1992) in a modified Tris-HCl buffer (50 mM Tris-HCl, pH 7.4, 1.4 mM Ascorbic Acid, 0.001% BSA, 150 mM NaCl) was used. Compounds of the invention were incubated with 0.16 nM [^3H]Spiperone for 120 min. at 25° C. Non-specific binding was estimated in the presence of 10 μM Haloperidol. Receptor proteins were filtered and washed, the filters were then counted to determine [^3H]Spiperone specifically bound. Compounds were screened at 1 μM or lower, using 1% DMSO as vehicle. Biochemical assay results are presented as the percent inhibition of specific binding in Table 5.

[4] = molecular target: T4, human recombinant serotonin (5-Hydroxytryptamine) 5-HT2A receptor (Homo sapiens, UniProt P28223); assay: Serotonin 5-HT2A radioligand binding ([3H]Ketanserin); details: compound at 1 μM; read-out: Serotonin (1 μM) 5-HT2A, percent inhibition of specific binding
T4 construct: expressed in transfected cells; host or cells: CHO-K1 cells
Experimental: To evaluate in radioligand binding assays the activity of compounds of the invention, human recombinant serotonin (5-Hydroxytryptamine) 5-HT2A receptor expressed in Chinese hamster ovary (CHO-K1) cells (Bonhaus, D. W. et al. Br. J. Pharmacol. 115:622, 1995; Saucier, C. and Albert, P. R., J. Neurochem. 68:1998, 1997) in a 50 mM Tris-HCl buffer, pH 7.4, was used. Compounds of the invention were incubated with 0.5 nM [^3H]Ketanserin for 60 min. at 25° C. Non-specific binding was estimated in the presence of 1 μM Mianserin. Receptor proteins were filtered and washed, the filters were then counted to determine [^3H]Ketanserin specifically bound. Compounds were screened at 1 μM or lower, using 1% DMSO as vehicle. Biochemical assay results are presented as the percent inhibition of specific binding in Table 6.

[5] = molecular target: T5, human recombinant histamine H2 receptor (Homo sapiens, UniProt P25021); assay: Histamine H2 radioligand binding ([125I]Aminopotentidine); details: compound at 1 μM; read-out: Histamine Binding (1 μM) H2, percent inhibition of specific binding
T5 construct: expressed in transfected cells; host or cells: CHO-K1 cells
Experimental: To evaluate in radioligand binding assays the activity of compounds of the invention, human recombinant histamine H2 receptor expressed in Chinese hamster ovary (CHO) K1 cells (Ruat, M., Proc. Natl. Acad. Sci. USA. 87(5):1658, 1990) in a 50 mM Phosphate buffer, pH 7.4 was used. Compounds of the invention were incubated with 0.1 nM [^125I]Aminopotentidine for 120 min. at 25° C. Non-specific binding was estimated in the presence of 3 μM Tiotidine. Receptor proteins were filtered and washed, the filters were then counted to determine [^125I]Aminopotentidine specifically bound. Compounds were screened at 1 μM or lower, using 1% DMSO as vehicle. Biochemical assay results are presented as the percent inhibition of specific binding in Table 6.

[6] = molecular target: T6, human recombinant serotonin (5-Hydroxytryptamine) 5-HT6 receptor (Homo sapiens, UniProt P50406); assay: Serotonin 5-HT6 radioligand binding ([3H]LSD); details: compound at 1 μM; read-out: Serotonin (1 μM) 5-HT6, percent inhibition of specific binding
T6 construct: expressed in transfected cells; host or cells: human HeLa cells
Experimental: To evaluate in radioligand binding assays the activity of compounds of the invention, human recombinant serotonin (5-Hydroxytryptamine) 5-HT6 receptor expressed in human HeLa cells (Monsma, F. J. Jr. et al., Mol. Pharmacol. 43:320, 1993) in a modified Tris-HCl buffer (50 mM Tris-HCl, pH 7.4, 150 mM NaCl, 2 mM Ascorbic Acid, 0.001% BSA) was used. Compounds of the invention were incubated with 1.5 nM [3H]Lysergic acid diethylamide (LSD) for 120 min. at 37° C. Non-specific binding was estimated in the presence of 5 μM Serotonin (5-HT). Receptor proteins were filtered and washed, the filters were then counted to determine [3H]LSD specifically bound. Compounds were screened at 1 μM or lower, using 1% DMSO as vehicle. Biochemical assay results are presented as the percent inhibition of specific binding in Table 6.

T5 sequence (P25021 whole entry): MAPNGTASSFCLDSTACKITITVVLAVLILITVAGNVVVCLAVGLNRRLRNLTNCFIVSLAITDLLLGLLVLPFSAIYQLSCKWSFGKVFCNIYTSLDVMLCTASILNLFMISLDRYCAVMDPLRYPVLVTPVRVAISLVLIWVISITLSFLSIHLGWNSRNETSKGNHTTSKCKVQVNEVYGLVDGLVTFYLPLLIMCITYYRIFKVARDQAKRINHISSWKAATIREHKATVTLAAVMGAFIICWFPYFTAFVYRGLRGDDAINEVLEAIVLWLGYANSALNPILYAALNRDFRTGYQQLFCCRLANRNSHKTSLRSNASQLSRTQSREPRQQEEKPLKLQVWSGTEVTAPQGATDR
T6 sequence (P50406 whole entry): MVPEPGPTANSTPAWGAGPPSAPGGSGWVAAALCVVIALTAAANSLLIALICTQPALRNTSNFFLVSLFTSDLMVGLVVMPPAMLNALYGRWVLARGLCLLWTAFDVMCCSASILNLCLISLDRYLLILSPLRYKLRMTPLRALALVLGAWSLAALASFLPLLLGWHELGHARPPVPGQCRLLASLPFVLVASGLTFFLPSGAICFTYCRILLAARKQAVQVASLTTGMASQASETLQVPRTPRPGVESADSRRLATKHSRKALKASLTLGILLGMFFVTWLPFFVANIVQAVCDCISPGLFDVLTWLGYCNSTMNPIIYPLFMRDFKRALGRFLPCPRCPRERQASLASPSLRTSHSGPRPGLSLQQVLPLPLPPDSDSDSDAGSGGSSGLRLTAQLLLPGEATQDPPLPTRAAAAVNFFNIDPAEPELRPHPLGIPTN
T3 sequence (P14416 whole entry): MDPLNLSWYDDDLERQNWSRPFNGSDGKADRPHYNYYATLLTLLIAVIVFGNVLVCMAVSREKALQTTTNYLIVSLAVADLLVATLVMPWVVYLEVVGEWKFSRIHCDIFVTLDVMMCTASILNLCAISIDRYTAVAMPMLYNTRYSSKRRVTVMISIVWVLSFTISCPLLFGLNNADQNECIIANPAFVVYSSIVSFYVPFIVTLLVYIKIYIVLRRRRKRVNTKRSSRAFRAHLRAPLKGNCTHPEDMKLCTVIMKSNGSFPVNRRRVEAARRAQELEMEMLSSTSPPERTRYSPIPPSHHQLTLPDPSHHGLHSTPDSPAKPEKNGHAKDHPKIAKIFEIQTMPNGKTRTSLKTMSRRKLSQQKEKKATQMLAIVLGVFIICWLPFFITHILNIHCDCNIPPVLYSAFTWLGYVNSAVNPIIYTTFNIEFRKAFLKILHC
T2 sequence (P35367 whole entry): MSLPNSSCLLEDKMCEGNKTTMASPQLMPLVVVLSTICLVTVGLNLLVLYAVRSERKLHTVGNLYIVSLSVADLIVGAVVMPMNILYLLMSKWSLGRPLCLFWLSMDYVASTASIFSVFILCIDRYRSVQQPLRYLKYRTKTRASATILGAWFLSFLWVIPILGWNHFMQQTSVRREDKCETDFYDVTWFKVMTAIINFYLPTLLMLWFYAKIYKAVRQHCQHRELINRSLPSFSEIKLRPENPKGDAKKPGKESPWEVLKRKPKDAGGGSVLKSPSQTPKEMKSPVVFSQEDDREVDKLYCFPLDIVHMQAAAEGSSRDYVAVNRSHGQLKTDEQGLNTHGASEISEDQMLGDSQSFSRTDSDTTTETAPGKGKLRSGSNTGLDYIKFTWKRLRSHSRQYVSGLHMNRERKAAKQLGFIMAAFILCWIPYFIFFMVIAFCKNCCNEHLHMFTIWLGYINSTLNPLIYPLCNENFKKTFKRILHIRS
T4 sequence (P28223 whole entry): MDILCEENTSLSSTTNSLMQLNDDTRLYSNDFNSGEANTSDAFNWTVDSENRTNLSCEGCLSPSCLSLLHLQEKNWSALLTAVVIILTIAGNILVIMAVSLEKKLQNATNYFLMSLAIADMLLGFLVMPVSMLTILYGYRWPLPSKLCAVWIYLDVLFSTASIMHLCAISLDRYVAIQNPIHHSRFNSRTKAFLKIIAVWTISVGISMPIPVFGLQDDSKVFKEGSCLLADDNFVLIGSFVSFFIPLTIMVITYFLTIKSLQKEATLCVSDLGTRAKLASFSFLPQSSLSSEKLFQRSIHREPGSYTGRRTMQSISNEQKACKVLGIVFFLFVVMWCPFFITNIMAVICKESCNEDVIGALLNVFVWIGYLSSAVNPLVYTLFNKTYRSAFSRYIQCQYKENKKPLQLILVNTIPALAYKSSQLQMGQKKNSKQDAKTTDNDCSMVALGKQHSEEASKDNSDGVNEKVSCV

SMILES | inhibition at 1 µM [1] [%] | inhibition at 1 µM [2] [%] | inhibition at 1 µM [3] [%] | inhibition at 1 µM [4] [%] | inhibition at 1 µM [5] [%] | inhibition at 1 µM [6] [%]
C/C(=C\n1c2c(c3cc(Cl)ccc31)CCN(C)CC2)c1ccc(Cl)c(Cl)c1 [Compound No. 154, (E)-9-chloro-6-(2-(3,4-dichlorophenyl)prop-1-enyl)-1,2,3,4,5,6-hexahydro-3-methylazepino[4,5-b]indole] | 99 | 94 | 33 | 100 | 97 | 92
C/C(=C\n1c2c(c3cc(Cl)ccc31)CCN(C)CC2)c1ccc(F)c(F)c1 [Compound No. 155, (E)-9-chloro-6-(2-(3,4-difluorophenyl)prop-1-enyl)-1,2,3,4,5,6-hexahydro-3-methylazepino[4,5-b]indole] | 98 | 93 | 38 | 99 | 92 | 101
COc1ccc(/C(C)=C/n2c3c(c4cc(Cl)ccc42)CCN(C)CC3)cc1F [Compound No. 157, (E)-9-chloro-6-(2-(3-fluoro-4-methoxyphenyl)prop-1-enyl)-1,2,3,4,5,6-hexahydro-3-methylazepino[4,5-b]indole] | 101 | 68 | 24 | 98 | 93 | 78
COc1ccc(/C(C)=C/n2c3c(c4cc(Cl)ccc42)CCN(C)CC3)cc1 [Compound No. 160, (E)-9-chloro-1,2,3,4,5,6-hexahydro-6-(2-(4-methoxyphenyl)prop-1-enyl)-3-methylazepino[4,5-b]indole] | 103 | 87 | 17 | 94 | 91 | 99
C/C(=C\n1c2c(c3cc(C)ccc31)CCN(C)CC2)c1ccc(Cl)c(Cl)c1 [Compound No. 176, (E)-6-(2-(3,4-dichlorophenyl)prop-1-enyl)-1,2,3,4,5,6-hexahydro-3,9-dimethylazepino[4,5-b]indole] | 99 | 82 | 23 | 99 | 95 | 74
C/C(=C\n1c2c(c3cc(C)ccc31)CCN(C)CC2)c1ccc(F)c(F)c1 [Compound No. 177, (E)-6-(2-(3,4-difluorophenyl)prop-1-enyl)-1,2,3,4,5,6-hexahydro-3,9-dimethylazepino[4,5-b]indole] | 99 | 93 | 25 | 98 | 92 | 96
COc1ccc(/C(C)=C/n2c3c(c4cc(C)ccc42)CCN(C)CC3)cc1F [Compound No. 179, (E)-6-(2-(3-fluoro-4-methoxyphenyl)prop-1-enyl)-1,2,3,4,5,6-hexahydro-3,9-dimethylazepino[4,5-b]indole] | 100 | 45 | 23 | 98 | 88 | 77
COc1ccc(/C(C)=C/n2c3c(c4cc(C)ccc42)CCN(C)CC3)cc1 [Compound No. 182, (E)-1,2,3,4,5,6-hexahydro-6-(2-(4-methoxyphenyl)prop-1-enyl)-3,9-dimethylazepino[4,5-b]indole] | 102 | 62 | 19 | 101 | 92 | 96
C/C(=C/n1c2c(c3cc(C)ccc31)CCN(C)CC2)c1ccccc1F [Compound No. 240, (Z)-6-(2-(2-fluorophenyl)prop-1-enyl)-3,9-dimethyl-1,2,3,4,5,6-hexahydroazepino[4,5-b]indole] | 97 | 96 | 57 | 98 | 87 | 102
C/C(=C\n1c2c(c3cc(C)ccc31)CCN(C)CC2)c1ccccc1F [Compound No. 241, (E)-6-(2-(2-fluorophenyl)prop-1-enyl)-3,9-dimethyl-1,2,3,4,5,6-hexahydroazepino[4,5-b]indole] | 97 | 98 | 37 | 100 | 93 | 100
C/C(=C/n1c2c(c3cc(Cl)ccc31)CCN(C)CC2)c1ccccc1F [Compound No. 242, (Z)-9-chloro-6-(2-(2-fluorophenyl)prop-1-enyl)-3-methyl-1,2,3,4,5,6-hexahydroazepino[4,5-b]indole] | 94 | 100 | 69 | 99 | 98 | 102
